# According to the NIST ThermoML archive (doi:10.1016/j.tca.2013.10.035):
# ± gives the expanded uncertainty stated by the source.
# Experiments:
# [1] = DTA
# [2] = Molar enthalpy of transition or fusion; conditions: DSC
Structure (SMILES),Normal melting temperature ([1]; Crystal) [°C],Molar enthalpy of transition or fusion ([2]; Crystal) [kcal/mol],Normal melting temperature ([1]; Crystal 1) [°C],Glass transition temperature [1] [°C],Molar enthalpy of transition or fusion ([2]; Crystal 1) [kcal/mol],Normal melting temperature ([1]; Metastable crystal) [°C],Molar enthalpy of transition or fusion ([2]; Metastable crystal) [kcal/mol]
COc1ccc2cc([C@H](C)C(=O)O)ccc2c1 [(S)-(+)-naproxen],153.6 ± 0.5,6.93 ± 0.191,,,,,
"Cc1ccccc1OCC(O)CO (stereo not given) [3-(2-methylphenoxy)-1,2-propanediol]",,,70.0 ± 0.5,-34.5 ± 0.5,7.12 ± 0.215,,
CC(=O)Nc1ccc(O)cc1 [N-acetyl-p-aminophenol],,,169.2 ± 0.5,21.2 ± 0.5,6.21 ± 0.191,156.7 ± 0.5,5.95 ± 0.167
COc1ccccc1OCC(O)COC(N)=O (stereo not given) [2-hydroxy-3-(2-methoxyphenoxy)propyl carbamate],95.4 ± 0.5,9.23 ± 0.263,,3.2 ± 0.5,,,
CC(C)NCC(O)COc1ccc(CC(N)=O)cc1 (stereo not given) [2-(4-(2-hydroxy-3-(isopropylamino)propoxy)phenyl)acetamide],152.8 ± 0.5,8.99 ± 0.239,,,,,
